IC50 data for 13 molecules are collected here from patent US7253158B2, “Sulfonamides” (Hoffmann-La Roche Inc., priority 2004, dated 2007).

Broadly, the IC50 is the concentration needed to halve the response being measured.

In the test the target is T1, γ-secretase (Homo sapiens, UniProt P49768).
T1 construct: uses a HEK293 membrane fraction as a source of γ-secretase; endogenous in cells; host or cells: HEK293 (microsomal membrane fraction, solubilised in 0.25% CHAPSO)
Nature of the test: in vitro γ-secretase assay (HEK293 membrane fraction, recombinant APP substrate, Abeta ELISA). The format is biochemical. The note with it: γ-secretase inhibition, table head prints none. An excerpt: Description of γ-Secretase Assay
The activity of test compounds can be evaluated in assays which measure the proteolytic cleavage of suitable substrates by γ-secretase activity. These can be cellular assays where e.g., a substrate of the γ-secretase is fused in its cytoplasmic domain to a transcription factor. Cells are transfected with this fusion gene and a reporter gene, e.g., firefly luciferase, which expression is enhanced by the transcription factor. Cleavage of the fused substrate by γ-secretase will lead to expression of the reporter gene which can be monitored in appropriate assays. The γ-secretase activity can also be determined in cell-free in vitro asays where e.g., a cell lysate containing the γ-secretase complex is incubated with a suitable APP-derived substrate which is cleaved to the Abeta peptides. The amount of produced peptides can be determined with specific ELISA assays. Cell lines of neuronal origin secrete Abeta peptides which can be measured with the specific ELISA assay. Treatment with compounds which inhibit γ-secretase leads to a reduction of secreted Abeta thus providing a measure of inhibition.
The in vitro assay of γ-secretase activity uses a HEK293 membrane fraction as a source of γ-secretase and a recombinant APP substrate. Latter consist of the C-terminal 100 amino acids of human APP fused to a 6× Histidin tail for purification which is expressed in E. coli in a regulatable expression vector, e.g. pEt15. This recombinant protein corresponds to the truncated APP fragment which results after […] of the extracellular domain and which constitutes the γ-secretase substrate. […] Hek293 cells are mechanically disrupted and the microsomal fraction is isolated by differential centrifugation.

For the molecule `CC1(C)CCNC(=O)C(N(Cc2ccc(C(=O)NC3CC3)cc2)S(=O)(=O)c2ccc(Cl)cc2)C1` (stereo not shown) [Example 109, 4-{[(4-Chloro-benzenesulfonyl)-(5,5-dimethyl-2-oxo-azepan-3-yl)-amino]-methyl}-N-cyclopropyl-benzamide], the half-inhibitory concentration (IC50) is 280 nM.

Take `COc1ccc(CN(C2CC(C(C)C)CCNC2=O)S(=O)(=O)c2ccc(Cl)cc2)cc1` (stereo not shown) [Example 111, 4-Chloro-N-(5-isopropyl-2-oxo-azepan-3-yl)-N-(4-methoxy-benzyl)-benzenesulfonamide]: the half-maximal inhibitory concentration (IC50) is 8 nM.

`O=C(NC1CC1)c1ccc(CN(C2CC(C(F)(F)F)CCNC2=O)S(=O)(=O)c2ccc(Cl)cc2)cc1` (stereo not shown) [Example 115, 4-{[(4-Chloro-benzenesulfonyl)-(2-oxo-5-trifluoromethyl-azepan-3-yl)-amino]-methyl}-N-cyclopropyl-benzamide]: the IC50 was 30 nM.

Take `COc1ccc(CN(C2CC(C(C)C)CCNC2=O)S(=O)(=O)c2ccc(Cl)cc2)c(F)c1` (stereo not shown) [Example 116, 4-Chloro-N-(2-fluoro-4-methoxy-benzyl)-N-(5-isopropyl-2-oxo-azepan-3-yl)-benzenesulfonamide]: the IC50 came out at 140 nM. As to `CC1(C)CCNC(=O)C(N(Cc2ccc(C(=O)O)cc2)S(=O)(=O)c2ccc(Cl)cc2)C1` (stereo not shown) [Example 139, 4-{[(4-Chloro-benzenesulfonyl)-(5,5-dimethyl-2-oxo-azepan-3-yl)-amino]-methyl}-benzoic acid], the 50% inhibitory concentration (IC50) is 70 nM. For `COc1ccc(CN([C@@H]2CCCCNC2=O)S(=O)(=O)c2ccc(C(F)(F)F)cc2)c(F)c1F` [Example 166, N-(2,3-Difluoro-4-methoxy-benzyl)-N-((R)-2-oxo-azepan-3-yl)-4-trifluoromethyl-benzenesulfonamide] the value was 230 nM; for `Cc1nnc(-c2ccc(CN(C3CC(C(C)C)CCNC3=O)S(=O)(=O)c3ccc(Cl)cc3)cc2)o1` (stereo not shown) [Example 180, 4-Chloro-N-(5-isopropyl-2-oxo-azepan-3-yl)-N-[4-(5-methyl-[1,3,4]oxadiazol-2-yl)-benzyl]-benzenesulfonamide], 140 nM; for `Cc1noc(-c2ccc(CN(C3CC(C(C)C)CCNC3=O)S(=O)(=O)c3ccc(Cl)cc3)cc2)n1` (stereo not shown) [Example 181, 4-Chloro-N-(5-isopropyl-2-oxo-azepan-3-yl)-N-[4-(3-methyl-[1,2,4]oxadiazol-5-yl)-benzyl]-benzenesulfonamide], 270 nM. Regarding `CC1(C)CCNC(=O)[C@H](N(Cc2ccc(C(=O)NC3CC3)cc2)S(=O)(=O)c2ccc(Cl)cc2)C1` [Example 183, 4-{[(4-Chloro-benzenesulfonyl)-((R)-5,5-dimethyl-2-oxo-azepan-3-yl)-amino]-methyl}-N-cyclopropyl-benzamide], the IC50 is 10 nM. On to `COC(=O)c1ccc(CN([C@@H]2CC(C)(C)CCNC2=O)S(=O)(=O)c2ccc(Cl)cc2)c(F)c1` [Example 185, 4-{[(4-Chloro-benzenesulfonyl)-((R)-5,5-dimethyl-2-oxo-azepan-3-yl)-amino]-methyl}-3-fluoro-benzoic acid methyl ester], for which the IC50 worked out at 10 nM. For `COC(=O)CCc1ccc(CN([C@@H]2CC(C)(C)CCNC2=O)S(=O)(=O)c2ccc(Cl)cc2)cc1` [Example 186, 3-(4-{[(4-Chloro-benzenesulfonyl)-((R)-5,5-dimethyl-2-oxo-azepan-3-yl)-amino]-methyl}-phenyl)-propionic acid methyl ester] the value was 130 nM; for `CC1(C)CCNC(=O)[C@H](N(Cc2ccc(CCC(=O)O)cc2)S(=O)(=O)c2ccc(Cl)cc2)C1` [Example 187, 3-(4-{[(4-Chloro-benzenesulfonyl)-((R)-5,5-dimethyl-2-oxo-azepan-3-yl)-amino]-methyl}-phenyl)-propionic acid], 10 nM. For `CC1(C)CCNC(=O)[C@H](N(Cc2ccc(C(=O)O)cc2F)S(=O)(=O)c2ccc(Cl)cc2)C1` [Example 188, 4-{[(4-Chloro-benzenesulfonyl)-((R)-5,5-dimethyl-2-oxo-azepan-3-yl)-amino]-methyl}-3-fluoro-benzoic acid] the value was 30 nM.
